{
  "source": "patent US8562974B2",
  "about": "“Method for expanding Cd4+ Cd25+ T regulator cells” (Fondazione Telethon, priority 2005, dated 2013)",
  "key": {"DO11.10 tg CD4^+ T cells [1]": {"test_system": "DO11.10 tg CD4^+ T cells", "experiment": "Cell size by FACS (FSC vs SSC) after 3 rounds of stimulation", "format": "cell-based, mice", "conditions": "3 weeks activation with rapamycin, one week rest with IL-2 50 U/ml", "description": "After 3 rounds of stimulation with APC+OVA (medium) or APC+OVA+rapamycin (rapamycin), DO11.10 tg CD4^+ T cells were left resting for one additional week with no further stimulation in the presence of IL-2 (50 U/ml). At the end of the seven days cell size was analyzed by FACS by plotting FSC vs SSC parameters. Small (continuous line) and big (dotted line) cells are circled. Naïve CD4^+ T cells from a DO11.10 tg mouse were used as control."}, "CD4^+ T cells": {"test_system": "CD4^+ T cells", "experiment": "In vitro treatment of CD4+ T cells with rapamycin: CD4+CD25+ Tr cell content", "format": "cell-based", "conditions": "in vitro treatment of CD4+ T cells (5-10% Tr cells at start)"}, "DO11.10 tg CD4^+ T cells [2]": {"test_system": "DO11.10 tg CD4^+ T cells", "experiment": "Re-stimulation without compound after 3 rounds, CFSE dilution (anergy)", "format": "cell-based, mice", "conditions": "after 3 rounds with rapamycin, re-stimulated with APC+OVA without rapamycin and IL-2, 5 days", "description": "The proportion of CFSE^+ cells proliferating in vitro was calculated as described elsewhere (Lyons 1994). Briefly, the number of cells (events) in a given cycle (division: n) was divided by 2 raised to power n, to calculate the percentage of original precursor cells from which they arose. The sum of original precursors from division 1 to 6 represents the number of precursors cells which proliferated. The percent of CFSE^+ divided cells was calculated by [(# of precursors that proliferated1-6/# of total precursors0-6)×100].\nIn more detail in relation to FIG. 1C, after 3 rounds of stimulation with APC+OVA (medium) or APC+OVA+rapamycin (rapamycin), DO11.10 tg CD4^+T cells were stained with CFSE and re-stimulated with APC+OVA in the absence of the compound and of exogenous IL-2. CFSE dilution was monitored 5 days after activation."}, "[3]": {"test_system": "CD4^+CD25^− and CD4^+CD25^+ T cells", "experiment": "Proliferation of sorted CD4+CD25- and CD4+CD25+ T cells with anti-CD3+anti-CD28+IL-2, CFSE", "format": "cell-based, human", "conditions": "100 nM rapamycin, 7 days", "description": "CD4^+CD25^− and CD4^+CD25^bright T cells were FACS sorted. Subsequently, sorted CD4^+CD25^− T cells were stained with CSFE and sorted CD4^+CD25^+ T cells were added back to the same amount present in unsorted CD4^+ T cells (5%) (FIG. 13, left panel). Alternatively, sorted CD4^+CD25^+ T cells were stained with CSFE and sorted CD4^+CD25^− T cells were added back to the same amount present in unsorted CD4^+ T cells (95%) (right panel of FIG. 13). The two distinct CFSE stained cell populations were activated with anti-CD3+anti-CD28 mAbs+IL-2 in the presence or absence of 100 nM rapamycin. CFSE dilution was monitored 7 days after activation. Numbers indicate the percentage of CFSE^+ dividing cells."}, "FOXP3 mRNA": {"test_system": "FOXP3 mRNA", "experiment": "FOXP3 quantitative PCR", "conditions": "CD4+ T cells exposed to rapamycin", "quoted_text": "Total RNA was extracted with Eurozol (Euroclone, Switzerland), and cDNA was synthesized with High Capacity cDNA Archive Kit (Applied Biosystems, New Jersey, USA). Levels of FOXP3 mRNA was quantified using Assay on Demand real-time PCR kits (Applied Biosystems, New Jersey, USA) with TaqMan Universal PCR Master Mix (Applied Biosystems, New Jersey, USA). Levels of 18s rRNA was quantified as internal control by using TaqMan PDAR Eukaryotic 18s Endogenus Controls (Applied Biosystems, assay ID: Mm00475156m1). Samples were run in duplicate, and relative expression of FOXP3 was determined by normalizing to 18 s expression in each set of samples in order to calculate a fold-change in value.\nTo address this question, CD4^+ T cells depleted of the CD25^+ Tr cells were cultured for three weeks in the presence or absence of rapamycin. […] The cultured cells were added in equal number to naïve KJ1-26^+CFSE^+ cells (10^5:10^5) and proliferation was monitored by CFSE dilution. […] Relative levels of mRNA FOXP3 were determined by real time quantitative RT-PCR in CD4^+ (left panel) or CD4^+CD25^− (right panel) T cells repetitively activated in vitro with or without rapamycin. The amounts of FOXP3 mRNA are expressed as relative to that in splenocytes depleted of CD4^+CD25^+ T cells (which was given an arbitrary value of 1). […]"}, "NOD CD4^+ T cells": {"test_system": "NOD CD4^+ T cells", "experiment": "Ex vivo expansion of NOD CD4+ T cells with rapamycin: regulatory markers", "format": "cell-based", "conditions": "pre-diabetic 11 week old NOD mice, three rounds of stimulation", "description": "CD4^+ T cells were obtained by incubation of splenocytes from pre-diabetic or diabetic NOD mice with αCD4 mAb-coated microbeads and applied onto MiniMacs columns (Miltenyi Biotec). The average purity was 95%. 1×10^6 CD4^+ T cells isolated from spleen of NOD mice were stimulated with coated 10 μg/ml of αCD3 and soluble 1 μg/ml of αCD28 mAbs (BD Biosciences). Cells were cultured in the presence of medium alone or 100 nM rapamycin (Sigma, St Louis, Mo.). Three rounds of stimulation of 7 days each were performed. IL-2 (BD Biosciences) was added starting from the second round of stimulation at 100 U/ml.\nIn this Example, we attempted to generate ex vivo Tr cells from non obese diabetic (NOD) mice. Spontaneously autoimmune diabetes in NOD mice mainly results from quantitative and qualitative changes in autoaggressive T effector cells. Older mice indeed harbor diabetogenic T cells that are progressively less prone to Tr cells-mediated inhibition (You et al. Diabetes, 2005). We tested whether rapamycin could expand functional Tr cells from NOD mice and whether these expanded T cells have a regulatory function. CD4^+ T cells were isolated from the spleen of pre-diabetic 11 week old NOD mice and were activated in vitro with anti-CD3 and CD28 mAbs in the presence of medium or rapamycin."}, "DO11.10 tg CD4^+ T cells [4]": {"test_system": "DO11.10 tg CD4^+ T cells", "experiment": "Activation induced cell death (AICD) by annexin V binding, FACS", "format": "cell-based, mice", "conditions": "APC+OVA, 100 nM rapamycin, 24 and 72 hours, vs control cells", "description": "(§1) 1×10^6 CD4^+ T cells isolated from spleen of DO11.10 tg mice were stimulated with 4×10^6 APC from Balb/c mice (i.e. total splenocytes irradiated 3000 Rad) and 0.6 μM OVA323-339peptide (OVA) (Primm, Milano, Italy). Three rounds of stimulation of 7 days each were performed. IL-2 (BD Biosciences) was added starting from the second round of stimulation at 50 U/ml. Alternatively, 1×10^6 CD4^+ T cells isolated from spleen of Balb/c mice were stimulated with coated 10 μg/ml of αCD3 and soluble 1 μg/ml of αCD28 mAbs (BD Biosciences). Cells were cultured in the presence of medium alone or 100 nM rapamycin (Sigma, St Louis, Mo.). Three rounds of stimulation of 7 days each were performed. IL-2 (BD Biosciences) was added starting from the second round of stimulation at 50 U/ml. In separate experiments, sorted CD4^+CD25^+ T cells isolated from spleen of Balb/c mice were stimulated with coated 10 μg/ml of αCD3, soluble 1 μg/ml of αCD28 mAbs (BD Biosciences) and 1000 U/ml of IL-2. Cells were cultured in the presence of medium alone or 100 nM rapamycin (Sigma, St Louis, Mo.). 1000 U/ml of IL-2 was added at the beginning of each new stimulation.\nIn more detail, DO11.10 tg CD4^+ T cells were cultured with APC+OVA (medium) or APC+OVA+rapamycin (rapamycin) and AICD was monitored by FACs after 24 and 72 hours of culture. Percentage of PI^+-annexinV^+ cells is indicated in each dot plot."}, "DO11.10 tg CD4^+ T cells [5]": {"test_system": "DO11.10 tg CD4^+ T cells", "experiment": "Fold expansion of T cells over three rounds of APC+OVA stimulation, direct cell counts", "format": "cell-based, mice", "description": "as §1\nFold expansion of T cells was determined after each round of stimulation. […] Rapamycin binds to FKBP12 and the formed complex inhibits the function of mTOR, which is involved in a broad range of physiological processes linked to the control of cell-cycle. […]"}, "DO11.10 tg CD4^+ T cells [6]": {"test_system": "DO11.10 tg CD4^+ T cells", "experiment": "CD4+CD25bright T cell content after 3 rounds of stimulation, FACS", "format": "cell-based, mice", "description": "(§2) Cells were stained with the indicated Abs (all from BD Biosciences, Mountain View, Calif.), and were analyzed with a FACScan flow cytometer equipped with CellQuest software (BD Biosciences). To obtain highly purified CD4^+CD25^+/− T cells, CD4^+ T cells were first purified from splenocytes isolated from Balb/c mice by positive selection with αCD4 mAb-coated microbeads (Miltenyi Biotec, Bergisch Gladbach, Germany). Thereafter, CD4^+ T cells were stained with Cy-coupled αCD4 and PE-coupled αCD25 mAbs (BD Biosciences) and CD4^+CD25^+ T cells were sorted by FACS-sorting on a FAC-Star (BD Biosciences).\nas §1, with “Cells were cultured in the presence of medium alone or 100 nM rapamycin (Sigma, St Louis, Mo.). 1000 U/ml of IL-2 was added at the beginning of each new stimulation.” left out\nAfter 3 rounds of stimulation with APC+OVA (medium) or APC+OVA+rapamycin (rapamycin), DO11.10 tg CD4^+ T cells were left resting for one week with no further stimulation in the presence of IL-2 (50 U/ml). After seven days cells were analyzed by FACS. […]\n1×10^6 DO11.10 tg CD4^+ T cells (containing 70.000 CD4^+CD25^bright T cells) were cultured with APC+OVA (medium, white bar) or APC+OVA+rapamycin (dotted bar, rapamycin). After 3 rounds of stimulation, the total number of CD4^+CD25^brightT cells was determined by FACS."}, "[7]": {"test_system": "Balb/c CD4^+CD25^+ T cells", "experiment": "Culture of sorted CD4+CD25+ T cells with αCD3+αCD28+1000 U/ml IL-2: fold expansion and CD25bright content", "format": "cell-based, mice", "description": "as §2\nas §1, with “stimulation. […]” for “stimulation.”\nFold expansion of Balb/c CD4^+CD25^+ T cells 1, 2, and 3 weeks after culture in the presence of αCD3+αCD28+1000 U/ml IL-2 (medium, white bars) or αCD3+αCD28+1000 U/ml IL-2+rapamycin (rapamycin, dotted bars) was evaluated by direct cell counts. […] After seven days, cells were analyzed by FACS. […]"}, "[8]": {"test_system": "CD4^+ T cells isolated from PBMCs", "experiment": "TCR-mediated proliferation and anergy of human CD4+ T cells, CFSE", "format": "cell-based", "description": "CD4^+ T cells isolated from PBMCs of healthy subjects or T1D patients were activated with plate bound anti-CD3 (10 μg/ml) and soluble of anti-CD28 (1 μg/ml) mAbs (BD Biosciences). Cells were cultured in the presence of medium (x-vivo 10) alone or with 100 nM rapamycin (Sigma, St Louis, Mo.). Three round of stimulations of 7 days each were performed. IL-2 (BD Biosciences) was added starting from the second round of stimulation at 100 U/ml.\nCD4^+ T cells were stained with CFSE either at the beginning of the culture (1st week), or at the end of one (2nd week), or three (4th week) round of stimulations. CFSE^+ CD4^+ T cells were activated in vitro in the presence of anti-CD3+anti-CD28 mAbs in the presence or absence of 100 nM rapamycin. CFSE dilution was monitored 7 days after activation.\nAfter 3 round of stimulations with anti-CD3+anti-CD28 mAbs (T medium) or anti-CD3+anti-CD28 mAbs+rapamycin (T rapamycin), CD4^+ T cells were stained with CFSE and re-stimulated with anti-CD3+anti-CD28 mAbs in the absence of the compound and of exogenous IL-2. CFSE dilution was monitored 7 days after activation. Numbers indicate the percentage of dividing cells."}},
  "data": [
    {"smiles": "CO[C@H]1C[C@@H]2CC[C@@H](C)[C@@](O)(O2)C(=O)C(=O)N2CCCC[C@H]2C(=O)O[C@H]([C@H](C)C[C@@H]2CC[C@@H](O)[C@H](OC)C2)CC(=O)[C@H](C)/C=C(\\C)[C@@H](O)[C@@H](OC)C(=O)[C@H](C)C[C@H](C)/C=C/C=C/C=C/1C", "note": "[rapamycin]", "values": [
      {"measurement": "cell size and shape", "setting": "DO11.10 tg CD4^+ T cells [1]", "value": "smaller and displayed a more round-like shape than control cells"},
      {"measurement": "increase of the CD4+CD25+ Tr cell content", "setting": "CD4^+ T cells", "value": 20, "unit": "fold"},
      {"measurement": "ability to proliferate on re-stimulation", "setting": "DO11.10 tg CD4^+ T cells [2]", "value": "retained their ability to proliferate"},
      {"measurement": "TCR-mediated proliferation of CD4+CD25- vs CD4+CD25+ T cells", "setting": "[3]", "value": "Selectively Blocks TCR-Mediated Proliferation of CD4^+CD25^− T Cells but not of CD4^+CD25^+ Tr Cells"},
      {"measurement": "FOXP3 expression", "setting": "FOXP3 mRNA", "value": "enhanced"},
      {"measurement": "enrichment in CD4+CD62L+ and CD45RBlow cells", "setting": "NOD CD4^+ T cells", "value": "highly enriched in"},
      {"measurement": "apoptosis (AICD) upon in vitro activation", "setting": "DO11.10 tg CD4^+ T cells [4]", "value": "neither increase nor reduction of apoptosis was observed"},
      {"measurement": "kinetic of proliferation (fold expansion)", "setting": "DO11.10 tg CD4^+ T cells [5]; APC+OVA, 100 nM rapamycin, weeks 1-3", "value": "delayed kinetic of proliferation compared to control cells"},
      {"measurement": "number of T cells recovered", "setting": "DO11.10 tg CD4^+ T cells [5]; end of the third week of culture", "value": "the same number of T cells was recovered in control- and rapamycin-cultures"},
      {"measurement": "enrichment in CD4+CD25bright T cells", "setting": "DO11.10 tg CD4^+ T cells [6]; T cells activated in the presence of rapamycin", "value": "highly enriched in"},
      {"measurement": "content of CD4+CD25bright Tr cells", "setting": "DO11.10 tg CD4^+ T cells [6]; cells exposed to rapamycin, 3 rounds APC+OVA", "value": "around 60%"},
      {"measurement": "total number of CD4+CD25bright T cells recovered", "setting": "DO11.10 tg CD4^+ T cells [6]; three weeks of culture, repetitive Ag-stimulation", "value": "markedly superior to that of control cultures"},
      {"measurement": "kinetic of proliferation (fold expansion)", "setting": "[7]; 100 nM rapamycin", "value": "delayed kinetic of proliferation compared to control cells"},
      {"measurement": "expansion", "setting": "[7]; starting from the third week of culture", "value": "greatly expanded"},
      {"measurement": "percentage of CD4+CD25bright T cells", "setting": "[7]; three weeks, vs control cells", "value": "higher percentage of"},
      {"measurement": "T cell anergy", "setting": "[8]; after 3 rounds, re-stimulated without compound and IL-2", "value": "Does Not Induce T Cell Anergy"},
      {"measurement": "TCR-mediated proliferation of CD4+ T cells", "setting": "[8]; anti-CD3+anti-CD28, 100 nM rapamycin", "value": "Strongly Reduces TCR-Mediated Proliferation"}
    ]}
  ]
}
